{"source": "patent US20260047583A1", "about": "“Bacillus Strain and Variants Thereof for Inhibition of Plant Diseases” (CHR. HANSEN A/S, priority 2022, published 2026)", "key": {"P. irregulare": {"tested_on": "P. irregulare", "assay": "Inhibitory effect of pure lipopeptides and their combinations on growth in PDB, OD 600 nm", "type": "cell-based, Pythium irregulare", "method": "(§1) Increasing concentrations of pure stocks of surfactin (Sigma S3523, FIG. 3A), fengycin (Sigma SMB00292, FIG. 3B) or iturin (Sigma 11774, FIG. 3C) were added to 48-well microtiter plates containing PDB medium and a fixed fungal spore concentration. Inhibitory effect over two different phytopathogenic species was assayed, F. culmorum (FIG. 3, left) and P. irregulare (FIG. 3, right). Plates were incubated at 25° C. without shaking for 60 hours (in dark conditions) and fungal growth was measured by spectrophotometry at 600 nm. Experiments were carried out in biological duplicates with no major variations in inhibition potency of the tested strains.\n(§2) Fungal growth inhibition of increasing concentrations of single compounds was compared with compound combinations, where a fixed concentration of one of them was assayed in combination with increasing concentrations of the second metabolite."}, "F. culmorum": {"tested_on": "F. culmorum", "assay": "Inhibitory effect of pure lipopeptides and their combinations on growth in PDB, OD 600 nm", "type": "cell-based, Fusarium culmorum", "method": "as §1, §2"}, "[1]": {"conditions": "even at high concentrations (200-400 μg/ml), FIG. 3A"}, "[2]": {"conditions": "in the presence of surfactin, FIG. 4"}}, "note": "Residues, ends and D or L forms follow the SMILES beside them.", "data": [{"compound": "CC(C)CCCCCCCCC[C@@H]1CC(=O)N[C@@H](CCC(=O)O)C(=O)N[C@@H](CC(C)C)C(=O)N[C@H](CC(C)C)C(=O)N[C@@H](C(C)C)C(=O)N[C@@H](CC(=O)O)C(=O)N[C@H](CC(C)C)C(=O)N[C@@H](CC(C)C)C(=O)O1", "note": "[surfactin] (HELM PEPTIDE1{E.L.[dL].V.D.[dL].L}|CHEM1{[CC(C)CCCCCCCCC[C@H](CC(=O)[*:1])O[*:2]]}$PEPTIDE1,CHEM1,1:R1-1:R1|PEPTIDE1,CHEM1,7:R2-1:R2$$$V2.0)", "values": [{"measurement": "inhibitory effect on growth", "setting": "P. irregulare; [1]", "value": "very modest"}, {"measurement": "inhibitory effect on growth", "setting": "F. culmorum; [1]", "value": "very modest"}]}, {"compound": "fengycin", "values": [{"measurement": "effective concentration of fengycin required to inhibit growth", "setting": "P. irregulare; at surfactin concentrations of 100-200 μg/ml", "value": 12.5, "unit": "µg/mL"}, {"measurement": "increase of bioactivity of fengycin in the presence of surfactin", "setting": "P. irregulare; [2]", "value": "up to 6 fold"}, {"measurement": "increase of bioactivity of fengycin in the presence of surfactin", "setting": "F. culmorum; [2]", "value": "up to 6 fold"}]}, {"compound": "iturin", "values": [{"measurement": "effective concentration for growth inhibition", "setting": "P. irregulare; 60 h, 25° C., FIG. 3C", "value": 9, "unit": "µg/mL"}, {"measurement": "effective concentration for growth inhibition", "setting": "F. culmorum; 60 h, 25° C., FIG. 3C", "value": 9, "unit": "µg/mL"}]}]}
